This note sets out measurements from PubChem BioAssay (NCI).

SMILES strings stand for the structures.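 Interpolation was linear, between the two tested concentrations surrounding the appropriate level; five concentrations were tested over 48 hours in 96-well plates. TGI: total growth inhibition.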

Holding throughout (assay): inhibition of tumour cell growth, NCI panel, 48 h
For experiment [1], the system named is A549 NSCLC.
For experiment [2], the system named is BT-549 breast.
The subject of experiment [3] is CAKI-1 renal.
Experiment [4] concerns HCC-2998 colon.
The subject of experiment [5] is HCT-15 colon.
The test system of experiment [6] is HL-60(TB) leukemia.
Experiment [7] relates to HOP-62 NSCLC.
Experiment [8] relates to HT29 colon.
Experiment [9] deals with K-562 leukemia.
The subject of experiment [10] is KM12 colon.
Experiment [11] relates to M14 melanoma.
In experiment [12] the test system is NCI-H23 lung.
For experiment [13], the system named is NCI-H522 lung.
Experiment [14] has as its system NCI/ADR-RES ovarian.
The test system of experiment [15] is PC-3 prostate.
The test system of experiment [16] is SF-295 CNS.
The subject of experiment [17] is SF-539 CNS.
For experiment [18], the system named is SK-MEL-2 melanoma.
Experiment [19] deals with T-47D breast.

Consider `CC[C@H]1C=CCC[C@@]2(C[C@@H]3CC[C@H]4[C@H](C(=O)OCCCCCCCCCCCCCCCC(=O)N(CCCN)C[C@@H](O)CCN)[C@]5(CCC[C@@H](C)O5)NC(=[N+]34)N2)O1`, for which the TGI was found to be 1.74 µM in experiment [1]; 4.27 µM in [2]; 1.87 µM in [3]; 1.82 µM in experiment [4]; 2.18 µM in experiment [5]; 1.35 µM in [6]. The TGI in experiment [7] came to 2.69 µM; in [8], 1.48 µM; in [9] it was 1.05 µM; in experiment [10] it was 1.82 µM; in experiment [11], 0.495 µM; in [12], 3.21 µM. Moreover, the TGI in [13] is 2.72 µM; in [14] it was 4.81 µM; in experiment [15] it was 2.06 µM; in [16] it was 3.31 µM; in [17], 3.32 µM; in experiment [18] it was 2.06 µM.

`Cn1c(=O)n2n(c1=O)[C@@H](c1ccccc1)[C@H]2c1ccccc1`: the TGI in experiment [1], in [2], in experiment [3], in [4], in experiment [5] and in [6] was > 100 µM throughout. Moreover, the TGI in experiment [7], in experiment [8], in [9], in experiment [10], in [11] and in experiment [12] was > 100 µM throughout. The TGI in experiment [14], in experiment [15], in [16], in [17] and in experiment [18] was > 100 µM in each case.

For the compound `COC(=O)c1ccc(NCC2=CC(=O)C=CC2=O)cc1`, the TGI in experiment [1] is 41.8 µM; in experiment [2], 27 µM; in experiment [3], 7.68 µM; in [4], 38.8 µM; in experiment [5], 25.9 µM; in experiment [6], 5.5 µM. Besides, the TGI in [8] was 38.8 µM; in experiment [9], 6.95 µM; in [10], 28.6 µM; in experiment [11], 15.8 µM; in [12], 29.8 µM; in experiment [13], 3.11 µM. For the same compound, the TGI amounted to 35.5 µM in [14], 37 µM in [15], 24.5 µM in experiment [17] and 37.4 µM in [18].

In the case of `COC(=O)[C@@H]1OC(C)(c2ccccc2)O[C@H]1C(=O)OC`, the TGI in [1], in experiment [3], in experiment [4], in experiment [5], in experiment [6] and in experiment [7] was > 100 µM each time. The TGI in experiment [8], in experiment [9], in experiment [10], in [11], in experiment [12] and in experiment [13] was > 100 µM in each case. Further, the TGI in [14], in [15], in experiment [16], in [17], in experiment [18] and in [19] was > 100 µM each time.

With `Cc1ccc(S(=O)(=O)Nn2c(O)c(C#N)c(-c3ccc(N(C)C)cc3)c(C#N)c2=O)cc1`, the TGI in experiment [1], in experiment [2], in [3], in experiment [4], in experiment [5] and in experiment [6] was > 50 µM throughout. Besides, the TGI in experiment [7], in experiment [8], in [9], in experiment [10], in experiment [13] and in experiment [14] was > 50 µM throughout. In addition, the TGI in [15] is > 50 µM; in experiment [16] it was 5.32 µM; in experiment [17], > 50 µM; in experiment [18], > 50 µM.

Take `O=c1c2cc(S(=O)(=O)Nc3c(Cl)cccc3Cl)ccc2ncn1NS(=O)(=O)c1ccc2ccccc2c1`: the TGI in experiment [1], in experiment [2], in experiment [3], in experiment [4], in [5] and in experiment [6] was > 62.5 µM throughout. For the same compound, the TGI in experiment [7], in experiment [8], in experiment [9], in [10], in experiment [11] and in experiment [12] was > 62.5 µM throughout. In addition, the TGI in experiment [13], in [14], in experiment [15], in [16], in [17] and in experiment [18] was > 62.5 µM throughout.

On to `COC(=O)C1(C(=O)OC)CC2=C(S(=O)(=O)c3ccccc3)C[C@H](C#N)[C@H]2C1`, for which the TGI in [1], in experiment [3], in [5], in [6], in experiment [7] and in experiment [8] was > 100 µM throughout. The TGI in [10], in experiment [11], in experiment [12], in experiment [13], in [14] and in experiment [15] was > 100 µM each time. The TGI in experiment [16], in [17], in experiment [18] and in [19] was > 100 µM in each case.

In the case of `OC(CC(O)(C(F)(F)F)C(F)(F)F)C(O)c1ccco1` (configuration not stated), the TGI in [1], in experiment [3], in experiment [4], in experiment [5], in experiment [6] and in experiment [7] was > 10 µM throughout. Further, the TGI in experiment [8], in experiment [9], in [10], in experiment [11], in experiment [12] and in experiment [13] was > 10 µM throughout. Also, the TGI in experiment [14], in experiment [15], in experiment [16], in experiment [17], in experiment [18] and in experiment [19] was > 10 µM throughout.
